The values below come from ChEMBL document CHEMBL1128438, “A priori prediction of activity for HIV-1 protease inhibitors employing energy minimization in the active site” (J Med Chem, 1995).

The target of the first assay is T1, Human immunodeficiency virus type 1 protease (Human immunodeficiency virus 1, UniProt Q72874). Kind of assay: Inhibition of HIV-1 protease was determined in vitro.
`CC(C)(C)OC(=O)CN(Cc1ccccc1)C[C@@H](O)[C@H](Cc1ccccc1)NC(=O)OC(C)(C)C` showed an IC50 of 4680 nM.

The molecule `CC(C)[C@H](NC(=O)[C@H](Cc1ccccc1)C[C@H](O)CN1C[C@H]2CCCC[C@H]2C[C@H]1C(=O)NC(C)(C)C)C(=O)Nc1ccc2ccccc2n1` had an IC50 of 52.8 nM.

`CC(C)(C)OC(=O)N[C@@H](Cc1ccc(O)cc1)[C@@H](O)[C@@H]1CCC[C@H]1C(=O)NCc1ccccc1` gave a 50% inhibitory concentration (IC50) of 589 nM.

Molecule `O=C(N[C@H]1c2ccccc2C[C@H]1O)[C@H](Cc1ccccc1)CC(O)C[C@@H](Cc1ccccc1)C(=O)N[C@H]1c2ccccc2C[C@H]1O` gave a half-maximal inhibitory concentration (IC50) of 0.692 nM.

As for `CC(C)(C)NC(=O)[C@@H]1C[C@@H]2CCCC[C@@H]2CN1CC(O)[C@H](Cc1ccccc1)NC(=O)OC(C)(C)C` (stereo not given in full), the 50% inhibitory concentration (IC50) was 3020 nM. This IC50 is about 4400-fold higher than that of the molecule before.

Take `CC(C)(C)OC(=O)N[C@@H](Cc1ccccc1)[C@@H](O)C[C@]1(Cc2ccccc2)CCCN([C@H]2c3ccccc3C[C@H]2O)C1=O`: inhibition was half-maximal at 1270 nM (IC50).

`CC(C)(C)OC(=O)N[C@@H](Cc1ccccc1)[C@@H](O)CC(=O)NC1c2ccccc2C[C@H]1O` (stereo not given in full) had an IC50 of 568 nM.

In the case of `CC(C)(C)OC(=O)N[C@@H](Cc1ccccc1)[C@@H](O)/C=C(/Cc1ccccc1)C(=O)N[C@H]1c2ccccc2C[C@H]1O`, the IC50 is 1.29 nM.

Molecule `CC(C)(C)NC(=O)[C@@H]1C[C@@H]2CCCC[C@@H]2CN1C[C@@H](O)C[C@@H](Cc1ccccc1)C(=O)N[C@H]1c2ccccc2C[C@H]1O` had a half-maximal inhibitory concentration (IC50) of 7.59 nM.

The molecule `CC(C)(C)NC(=O)[C@@H]1C[C@@H]2CCCC[C@@H]2CN1CC(O)CN1C[C@H]2CCCC[C@H]2C[C@H]1C(=O)NC(C)(C)C` had an IC50 of 6760 nM.

The molecule `CC(C)(C)OC(=O)N[C@@H](Cc1ccccc1)[C@H](O)CN[C@@H](Cc1ccccc1)C(=O)N[C@H]1c2ccccc2C[C@H]1O` showed a concentration for half-maximal inhibition (IC50) of 229 nM.

With `CC(C)(C)OC(=O)N[C@@H](Cc1ccccc1)[C@@H](O)[C@H](O)[C@H](Cc1ccccc1)NC(=O)OC(C)(C)C`, half-maximal inhibition (IC50) was put at 1370 nM. This IC50 lies about 6-fold higher than the previous one.

For a further assay, the target named is T1, Human immunodeficiency virus type 1 protease. Kind of assay: In vitro inhibition of HIV-1 protease.
`CC(C)(C)OC(=O)N[C@@H](Cc1ccccc1)[C@@H](O)C[C@@H](Cc1ccccc1)C(=O)N[C@@]1(C)c2ccccc2C[C@H]1O` yielded an IC50 of 212 nM.

In turn, `CC(C)(C)OC(=O)N[C@@H](Cc1ccccc1)[C@@H](O)C[C@@H](Cc1ccccc1)C(=O)NCC1CCCCC1` displayed an IC50 of 30000 nM.

For `COC(=O)[C@@H]1Cc2ccccc2[C@@H]1NC(=O)[C@H](Cc1ccccc1)C[C@H](O)[C@H](Cc1ccccc1)NC(=O)OC(C)(C)C`, half-maximal inhibition (IC50) required 66.3 nM.

`CC(C)(C)OC(=O)N[C@@H](Cc1ccccc1)[C@@H](O)C[C@@H](Cc1ccccc1)C(=O)N[C@H]1CCCC[C@H]1O`: it took 122 nM to reach half-maximal inhibition (IC50). This IC50 lies about 1.8-fold higher than the previous one.

The molecule `CC(C)(C)OC(=O)N[C@@H](Cc1ccccc1)[C@@H](O)C[C@@H](CSc1ccccc1)C(=O)N[C@H]1c2ccccc2C[C@H]1O` gave a half-maximal inhibitory concentration (IC50) of 0.25 nM.

In turn, `CC(C)(C)OC(=O)N[C@@H](Cc1ccccc1)[C@@H](O)C[C@@](C)(Cc1ccccc1)C(=O)N[C@H]1c2ccccc2C[C@H]1O` gave an IC50 of 7.7 nM.

For the molecule `CC(C)(C)OC(=O)N[C@@H](Cc1ccccc1)[C@@H](O)C[C@@H](Cc1ccccc1)C(=O)N[C@@H]1c2ccccc2OC[C@@H]1O`, inhibition was half-maximal at 40.5 nM (IC50).

For `CC(C)(C)OC(=O)N[C@@H](Cc1ccccc1)[C@@H](O)CCC(=O)N[C@H]1c2ccccc2C[C@H]1O`, the IC50 is 2930 nM.

As for `CC(C)(C)OC(=O)N[C@@H](Cc1ccccc1)[C@@H](O)C[C@@H](Cc1ccccc1)C(=O)N[C@H]1c2ccccc2OC[C@H]1O`, the IC50 was found to be 0.18 nM.

In turn, `CC(C)[C@H](NC(=O)[C@H](Cc1ccccc1)C[C@H](O)[C@H](Cc1ccccc1)NC(=O)OC(C)(C)C)C(=O)O` yielded an IC50 of 161 nM. This IC50 is about 890-fold higher than that of the molecule before.

Consider `CC(C)(C)OC(=O)N[C@@H](Cc1ccccc1)[C@@H](O)C[C@@H](Cc1ccccc1)C(=O)N[C@H](CO)c1ccccc1`, for which the IC50 is 38.6 nM.

As for `CC(C)(C)OC(=O)N[C@@H](Cc1ccccc1)[C@@H](O)C[C@@H](Cc1ccccc1)C(=O)N[C@H](CO)Cc1ccccc1`, the IC50 was 690 nM.

Turning to `CC(C)(C)OC(=O)N[C@@H](Cc1ccccc1)[C@@H](O)C[C@@H](CC(=O)c1ccccc1)C(=O)N[C@H]1c2ccccc2C[C@H]1O`, the IC50 is 5.42 nM.

`CC(C)(C)OC(=O)N[C@@H](Cc1ccccc1)[C@@H](O)C[C@@H](Cc1ccccc1)C(=O)NCc1ccccc1` registered an IC50 of 114 nM.

Molecule `CC(C)(C)OC(=O)N[C@@H](Cc1ccccc1)[C@@H](O)C[C@@H](Cc1ccccc1)C(=O)N[C@H]1c2ccccc2C[C@H]1O` had an IC50 of 0.25 nM.

Molecule `CC(C)(C)OC(=O)N[C@@H](Cc1ccccc1)[C@@H](O)C[C@@H](Cc1ccc(C(C)(C)C)cc1)C(=O)N[C@H]1c2ccccc2C[C@H]1O` yielded an IC50 of 0.17 nM.

As to `C=CC[C@H](C[C@H](O)[C@H](Cc1ccccc1)NC(=O)OC(C)(C)C)C(=O)N[C@H]1c2ccccc2C[C@H]1O`, half-maximal inhibition (IC50) required 27.5 nM.

For the molecule `CC(C)(C)OC(=O)N[C@@H](Cc1ccccc1)[C@@H](O)C[C@@H](CCCc1ccccc1)C(=O)N[C@H]1c2ccccc2[C@@H](O)[C@H]1O`, the half-inhibitory concentration (IC50) was 0.19 nM.

Take `C[C@@H](NC(=O)[C@H](Cc1ccccc1)C[C@H](O)[C@H](Cc1ccccc1)NC(=O)OC(C)(C)C)C1CCCCC1`: the IC50 turned out to be 146 nM.

`CC(C)(C)OC(=O)N[C@@H](Cc1ccccc1)[C@@H](O)C[C@@H](Cc1ccccc1)C(=O)N[C@@H]1CCc2ccccc21` yielded a concentration for half-maximal inhibition (IC50) of 34.2 nM.

`CC(C)(C)OC(=O)N[C@@H](Cc1ccccc1)[C@@H](O)C[C@@H](Cc1ccccc1)C(=O)N[C@H]1c2ccccc2CC[C@H]1O` registered an IC50 of 0.7 nM.

Regarding `CC(C)(C)OC(=O)N[C@@H](Cc1ccccc1)[C@@H](O)C[C@@H](Cc1ccncc1)C(=O)N[C@H]1c2ccccc2C[C@H]1O`, half-maximal inhibition (IC50) required 0.53 nM.

`CC(C)(C)OC(=O)N[C@@H](Cc1ccccc1)[C@@H](O)C[C@@H](Cc1ccccc1)C(=O)N[C@H]1C=CC[C@H]1O` displayed an IC50 of 9.53 nM. Compared with the last molecule, the IC50 is about 18-fold higher.
